The values that follow come from patent US4094899A, “Oxaprostaglandins” (Pfizer Inc., priority 1973, dated 1978).

For data set [1], the system named is histamine induced bronchospasm in the guinea pig. The data set is described as follows: histamine induced bronchospasm in the guinea pig (aerosol). As to conditions: for Histamine Aerosol: per cent protection for histamine induced bronchospasm: 100 μg/ml aerosol dose, guinea pig. The class given is in vivo. As for the experimental part: (§1) These tests include, among others, a test for effect on isolated smooth muscle from guinea pig ileum and rat uterus, a test for effect on histamine induced bronchospasm in guinea pig, a test for effects on dog blood pressure, a test for induction of diarrhea in mice, and a test for the induction of abortion in early pregnant rats.
^(b) Per cent protection by 100 μg/ml aerosol dose for histamine
induced bronchospasm in the guinea pig.

For data set [2], the system named is anesthetized dog blood pressure. The data set is described as follows: depressor effect on anesthetized dog blood pressure. It counts as in vivo. As to conditions: for Dog Blood Pressure: relative dose at which oxaprostaglandin derivative has similar action to PGE2 for depressor effect: anesthetized dog.
Excerpt: as §1
^(a) Relative dose at which oxaprostaglandin derivative has similar
action to PGE2 for depressor effect on anesthetized dog blood

The subject of the next data set is guinea pig ileum. The data set can be described thus: spasmogenic effect on guinea pig ileum in vitro. The conditions noted are these: Cavia porcellus, read-out: Guinea pig Ileum: threshold dose for spasmogenic effect.
Excerpt: as §1
^(d) Threshold dose for spasmogenic effect on guinea pig ileum in […]

The next data set has as its system estrogenized rat uterus. The data set can be described thus: spasmogenic effect on estrogenized rat uterus in vitro. As to conditions: read-out: Rat Uterus: threshold dose for spasmogenic effect.
Excerpt: as §1
^(c) Threshold dose for spasmogenic effect on estrogenized rat uterus

The test system of the next data set is early pregnant rat. The data set can be described thus: induction of abortion in early pregnant rats. The class given is in vivo.
Excerpt: as §1
(§2) On the basis of the difference seen in the rat uterus and guinea pig ileum tests with 19 -oxaprostaglandin E2, one would expect to have a reduction of the unpleasant gastrointestinal side effects which were encountered when natural PGE2 was employed as an abortion inducer (Lancet, 536, 1971).

The nature of data set [3]: physiological tests taken together (Table I; comparison with natural prostaglandin). The conditions noted are these: in words; compared with natural prostaglandin; rat uterus vs guinea pig ileum.
Excerpt: as §1, §2

Data set [4] deals with norepinephrine stimulated lipolysis. The data set can be described thus: inhibition of norepinephrine stimulated lipolysis. As to conditions: read-out: K: inhibition constant for norepinephrine stimulated lipolysis. The text has this: ^(e) Inhibition constant for norepinephrine stimulated lipolysis.
A further data set has as its system mice. The data set is described as follows: induction of diarrhea in mice in vivo.
Excerpt: as §1, §2

As for `CCOCC[C@H](O)/C=C/[C@H]1[C@H](O)CC(=O)[C@@H]1C/C=C\CCCC(=O)O` [18-oxa PGE2, 9-oxo-11α,15α-dihydroxy-18-oxa-cis-5-trans-13-prostadienoic acid], the “Histamine Aerosol: per cent protection for histamine induced bronchospasm” value (“Histamine Aerosol: per cent protection” for short) in data set [1] amounted to 3%. In addition, in data set [2], the “Dog Blood Pressure: relative dose at which oxaprostaglandin derivative has similar action to PGE2 for depressor effect” value (“Dog Blood Pressure: relative dose” for short) turned out to be 2. Further, the “selectivity with regard to blood pressure effects” value in data set [2] (in words, from Table I) is given as “particularly selective with regard to its blood pressure effects”. Besides, the minimal effective concentration in the data set with guinea pig ileum and in the data set on estrogenized rat uterus was 0.1 to 0.3 µg/mL each time.
On to `CCOCC[C@H](O)/C=C/[C@@H]1[C@@H](C/C=C\CCCC(=O)O)[C@@H](O)C[C@H]1O` [18-oxa PGF2α, 9α,11α,15α-trihydroxy-18-oxa-cis-5-trans-13-prostadienoic acid], for which the minimal effective concentration was 0.1 to 0.3 µg/mL with guinea pig ileum and 0.3 to 0.6 µg/mL with estrogenized rat uterus.
In the case of `COCCC[C@H](O)/C=C/[C@H]1[C@H](O)CC(=O)[C@@H]1C/C=C\CCCC(=O)O` [19-oxa PGE2, 9-oxo-11α,15α-dihydroxy-19-oxa-cis-5-trans-13-prostadienoic acid], the “Histamine Aerosol: per cent protection” value in data set [1] amounted to 19%. For the same compound, in the data set with early pregnant rat, the “effectiveness in inducing abortion compared with natural PGE2” value is listed as “as effective as natural PGE2”. Moreover, the tissue selectivity entry in data set [3] is given as “tissue selectivity, particularly 19-oxaprostaglandin E2”. The “Dog Blood Pressure: relative dose” value in data set [2] is on record as 20. Moreover, the Ki in data set [4] was 2.5 µM. The figures for the minimal effective concentration with guinea pig ileum and in the data set on estrogenized rat uterus were 0.1 to 0.5 µg/mL and 0.05 to 0.1 µg/mL, respectively. In the data set with mice, the “effectiveness in inducing diarrhea relative to natural PGE2” value was 10%.
`COCCC[C@H](O)/C=C/[C@@H]1[C@@H](C/C=C\CCCC(=O)O)[C@@H](O)C[C@H]1O` [19-oxa PGF2α, 9α,11α,15α-trihydroxy-19-oxa-cis-5-trans-13-prostadienoicacid]: the minimal effective concentration with guinea pig ileum and in the data set on estrogenized rat uterus was 0.1 to 0.5 µg/mL each time.
With `CCOCCC[C@H](O)/C=C/[C@H]1[C@H](O)CC(=O)[C@@H]1C/C=C\CCCC(=O)O` [19-oxa-ω-homo-PGE2, 9-oxo-11α,15α-dihydroxy-19-oxa-cis-5-trans-13-w-homo-prostadienoic acid], the “Histamine Aerosol: per cent protection” value in data set [1] is 38%. Further, the “bronchodilator selectivity compared with natural PGE2” value in data set [1] (in words, from Table I) is reported as “more selective bronchodilator than natural PGE2”. Moreover, in data set [2], the “Dog Blood Pressure: relative dose” value turned out to be 4. Moreover, the Ki in data set [4] was determined as 4 µM. The minimal effective concentration in the data set with guinea pig ileum and in the data set on estrogenized rat uterus was 0.1 µg/mL each time.
For the compound `CCOCCC[C@H](O)/C=C/[C@@H]1[C@@H](C/C=C\CCCC(=O)O)[C@@H](O)C[C@H]1O` [19-oxa-ω-homo-PGF2α, 9α,11α,15α-trihydroxy-19-oxa-cis-5-trans-13-ω-homoprostadienoic acid], the minimal effective concentration is at least 0.1 µg/mL with guinea pig ileum and 0.06 to 0.3 µg/mL in the data set with estrogenized rat uterus.
With `CCCCC[C@H](O)/C=C/[C@H]1[C@H](O)CC(=O)[C@@H]1C/C=C\CCCC(=O)O` [PGE2, reference compound], in data set [1], the “Histamine Aerosol: per cent protection” value worked out at 75%. Besides, in data set [2], the “Dog Blood Pressure: relative dose” value is 1. In data set [4], the Ki was 0.4 µM. For the same compound, the minimal effective concentration in the data set on guinea pig ileum and in the data set on estrogenized rat uterus was 0.01 to 0.03 µg/mL throughout.
